How the values were obtained:
[1] = system: plasma glucose level; experiment: Reduction in plasma glucose of a diabetic primate after a single dose (FIG. 1); assay type: in vivo, monkeys; details: diabetic primate M1081, baseline glucose 6.3 mmol/L, over 6 h after a single dose, 10.4 ug/kg BW
[2] = system: gene expression in pancreas; experiment: Quantitative real-time PCR gene expression in pancreas of obese, insulin resistant Wistar rats; assay type: in vivo
Method: Three week old male rats were fed a high fat diet for 24 weeks to induce obesity and insulin resistance. Thereafter, rats were treated with 0.3 mg/kg Rx-1 daily for two weeks, and then with 3 mg/kg Rx-1 daily for seven days. Fasting glucose concentrations were measured before treatment, after two weeks treatment with 0.3 mg/kg Rx-1 and then again after seven days treatment with 3 mg/kg Rx-1. After treatment with 3 mg/kg Rx-1 rats were terminated and liver, muscle and pancreas biopsies were taken. Quantitative real-time PCR was used to measure the expression of 12 genes in liver and muscle samples, and ten genes in pancreas samples.
Rats were housed at the Primate Unit (Medical Research Council, South Africa). Rat management including feeding, glucose measurements and terminations, were done according to standard operating procedures (Diabetes Discovery Platform, Medical Research Council). Briefly, three week old rats were fed a high fat diet for 24 weeks to induce T2D. The study group consisted of thirteen rats, eight rats were treated by daily gavage with 0.3 mg/kg Rx-1 for two weeks, and then with 3 mg/kg Rx-1 for seven days. Five rats were used as controls and were treated with water only for three weeks. Rats were terminated after treatment and liver, muscle and pancreas tissue harvested and stored in RNalater (Ambion) as recommended by the manufacturer. The study was approved by the ethics committee of the Medical Research Council of South Africa.
RNA extracted from liver, muscle and pancreas tissue was converted to cDNA using the High Capacity Reverse Transcription kit as recommended by the manufacturers (Applied Biosystems). In brief, 2 μg of DNase-treated RNA was added to nuclease-free water in a volume of 10 μl. Thereafter, 2 μl reaction buffer, 0.8 μl dNTPs, 2 μl random primers, 1 μl RNase-inhibitor, 1 μl reverse transcriptase, and 3.2 μl nuclease-free water were added. The same reaction without the reverse transcription enzyme (minus RT reaction) was set-up to investigate genomic DNA contamination. Reactions were incubated at 25° C. for 10 min, 37° C. for 120 min, and 85° C. for 5 s to inactivate the reverse transcriptase. cDNA samples were stored at −20° C. until expression analysis.
For analysis of gene expression, 25 ng of cDNA prepared from liver, muscle and pancreas was mixed with 12.5 μl Taqman universal PCR master mix (Applied Biosystems), 1.25 μl gene-specific primer and probe mixtures (predeveloped Taqman gene expression assays, Applied Biosystems), and H2O in a final volume of 25 μl. The suffix _m represents an assay whose probe spans an exon-exon junction of the associated gene and therefore will not detect genomic DNA, while the suffix _s represents an assay whose primers and probes are designed within a single exon, such assays will detect genomic DNA.
The PCR reactions were conducted on the ABI 7500 Sequence Detection System Instrument (Applied Biosystems) using universal cycling conditions as described before. All samples were run in duplicate. Data generated on the ABI 7500 Instrument were analysed with the ABI Relative Quantitation (RQ) software (SDS V1.4) using a Ct threshold of 0.1. Relative expression levels were determined by using the 2^−ΔΔCt method, where ΔΔCt=(Ctgene studied−Cthousekeeping gene)treated−(Ctgene studied−Cthousekeeping gene)control. The gene expression was normalised to housekeeping genes to correct for differences in cDNA loading. Two gene expression assays, β-actin (ActB) and glyceraldehyde-3-phosphate dehydrogenase (Gapdh) (Table 1) were used as endogenous controls. Relative gene expression data generated by the RQ software for each of the two endogenous controls individually or the data normalised to the average of the two endogenous controls were imported into Microsoft Excel and analysed. […]

[3] = system: glucose stimulated insulin secretion; experiment: Glucose stimulated insulin secretion rate AUC in prediabetic vervet monkeys (FIG. 2); assay type: in vivo; details: versus untreated
Method: Prediabetic vervet monkeys (fasting plasma glucose levels between 4.0 and 5.5 mM) were treated with 10 ug/kg RX-1 3 times daily with meals for 7 days. Blood samples were collected following 1.75 g/kg oral glucose stimulation at 0, 5, 10, 15, 30, 60, 90, 120 and 180 minutes. AUC values calculated mean glucose stimulated insulin secretion values over the time interval 0-120 min. Four monkeys were used in each group (untreated, RX1-treated).

[4] = system: GLP1; details: blood of treated OB/IR rats; other studies in our laboratory (Louw et al. 2008); cited from earlier work

Pcsk2 or proconvertase 2 (PC2) mRNA levels [2]: unaffected
Compound: O=C(O)/C(=C/c1ccccc1)O[C@@H]1O[C@H](CO)[C@@H](O)[C@H](O)[C@H]1O [RX-1, 3-Phenyl-2-(3,4,5-trihydroxy-6-hydroxymethyl-tetrahydro-pyran-2-yloxy)-acrylic acid]
reduction in plasma glucose level [1]: reduce the blood sugar of monkeys for prolonged periods of time
nestin mRNA levels [2]: unaffected
GLP1R gene expression ([2]; not statistically significant): increased
Gcg mRNA levels ([2]; not statistically significant): increased
GcgR mRNA levels ([2]; not statistically significant): increased
Ins1 gene expression ([2]; not statistically significant): increased
Ins2 gene expression ([2]; not statistically significant): increased
Isl1 mRNA levels ([2]; not statistically significant): increased
Pdx1 gene expression ([2]; not statistically significant): increased
glycaemic control ([3]; 10 ug/kg 3 times daily for 7 days): better glycaemic control
decrease of glucose stimulated insulin secretion (AUC 0-120 min) ([3]; 10 ug/kg 3 times daily with meals for 7 days, 1.75 g/kg oral glucose stimulation, FIG. 2): 46%
circulating GLP1 levels [4]: increased

— patent US10174065B2, “Antidiabetic enolic glucoside of phenylpyruvic acid” (ZADEC APS, priority 2010, dated 2019)
